In patent publication US20180125805A1, “PROPHYLACTIC/THERAPEUTIC AGENT FOR VIRUS INFECTIONS WHICH COMPRISES ALA COMPOUND” (SBI Pharmaceuticals Co., Ltd., priority 2015, published 2018):
Several values for one entry are separate records, joined by “and”; a condition that tells them apart may be missing. Equal entries are not always repeated.

System: Hepatitis B virus (HBV) genotype C
Assay: HBV DNA content in culture supernatants of HBV-infected PXB hepatocytes, quantitative PCR with TaqMan probe
Type: cell-based, human hepatitis B virus
Conditions: for DNA content of HBV in the culture supernatants: PXB hepatocytes, replicates No. 1-3
Description: PXB hepatocytes prepared from “PXB-Mouse (registered trademark)” (manufactured by PhoenixBio) were used as test samples to examine the effect of a change in virus load by adding 5-ALA or the like to a medium. […] Therefore, PXB-Mouse is utilized as a human in vivo prediction model of hepatitis virus infections in pharmacokinetic studies.
Hepatitis B virus (HBV) genotype C was suspended in dHCGM medium (DMEM+10% FBS, 44 mM NaHCO3, 15 μg/mL L-proline, 0.25 μg/mL insulin, 50 […], 5 ng/mL EGF, 0.1 mM Asc-2P, 2% DMSO) containing 4% polyethylene glycol in the virus load of 2×10^6 per well to give 250 μL/well of a HBV infection medium. The sequence of HBV genotype C is disclosed in a public data bank such as GenBank and the accession number is AB246345.1.
5-ALA and sodium ferrous citrate (SFC) were blended in dHCGM medium at the concentrations shown in Table 1 below to prepare 250 μL each of test media. As a positive control medium, a medium prepared by dissolving 2.5 nM entecavir (manufactured by Santa Cruz Biotechnology, Inc.) in dHCGM medium was used.
PXB hepatocytes, which are primary cultured liver cells isolated by a two-step collagenase perfusion procedure (Yamasaki C, et al. Drug Metab Pharmacokinet. 2010, 25:539-550.) from 12- to 16-week-old PXB mice having a body weight of 11 g or more, were suspended in Dulbecco's modified Eagle's medium (DMEM) with 10% fetal bovine serum (FBS) (DMEM+10% FBS) containing 100 IU/mL penicillin G, 100 μg/mL streptomycin and 20 mM HEPES, seeded in a 24-well plate coated with type I collagen at a density of 4×10^5 cells/well, and incubated at 37° C. under 5% CO2. The next day, the medium was removed, and 500 μL of DMEM+10% FBS was then added to each well. Thereafter, the medium was removed again, 250 μL of the above-mentioned HBV infection medium or a non-infection medium and 250 μL each of the above-mentioned test medium were added to each well to provide 500 μL each of evaluation media. The evaluation media were incubated at 37° C. under 5% CO2 for 20 to 28 hours. On day 1, 2, 7, 12 and 17 after HBV virus infection, the media were replaced by 500 μL each of the above-mentioned evaluation media. On day 12, 17 and 22 after the virus infection, culture supernatants were collected and the DNA content of HBV in the supernatants was determined by a quantitative PCR assay with TaqMan probe. The incubation period after the virus infection was 22 days. The results are shown in the following Tables 2 and 3 and the graph of FIG. 1. The ordinate of FIG. 1 indicates the DNA content of HBV in the culture supernatants.

NCC(=O)CCC(=O)O [ALA, 5-aminolevulinic acid]
DNA content of HBV in the culture supernatants (ALA 1 mM, day 12 after virus infection): 6.0 log copies/mL and 6.1 log copies/mL and 5.8 log copies/mL
DNA content of HBV in the culture supernatants (ALA 1 mM, day 17 after virus infection): 6.0 log copies/mL (2×) and 5.8 log copies/mL
DNA content of HBV in the culture supernatants (ALA 1 mM, day 22 after virus infection): 6.1 log copies/mL and 5.9 log copies/mL and 6.0 log copies/mL

C=C1[C@H](CO)[C@@H](O)C[C@@H]1n1cnc2c(=O)[nH]c(N)nc21 [ETV, entecavir, reference compound]
DNA content of HBV in the culture supernatants (ETV 2.5 nM (positive control), day 12 after virus infection): 4.4 log copies/mL
DNA content of HBV in the culture supernatants (ETV 2.5 nM (positive control), day 17 after virus infection): 4.2 log copies/mL and 4.8 log copies/mL and 4.1 log copies/mL
DNA content of HBV in the culture supernatants (ETV 2.5 nM (positive control), day 22 after virus infection): 4.4 log copies/mL and 4.0 log copies/mL and 3.9 log copies/mL

sodium ferrous citrate [SFC]
DNA content of HBV in the culture supernatants (SFC 0.5 mM, day 12 after virus infection): 6.1 log copies/mL (2×) and 6.2 log copies/mL
proliferation of HBV virus (FIG. 1) (SFC 500 μM, day 12 and 17 after the virus infection, P<0.05): significantly inhibited
DNA content of HBV in the culture supernatants (SFC 0.5 mM, day 17 after virus infection): 6.3 log copies/mL and 6.4 log copies/mL (2×)
DNA content of HBV in the culture supernatants (SFC 0.5 mM, day 22 after virus infection): 6.5 log copies/mL
